Laboratory results reported in publication PMC5450158 (European journal of pharmaceutical sciences : official …, 2017).
Like-named read-outs stand apart in the source and are kept apart here.

Legend:
[1] = molecular target: T1, MRP3 (ABCC3) (Homo sapiens, UniProt O15438); test: inhibition of ATP-dependent [3H]-E217G uptake, membrane vesicles; assay type: biochemical
[2] = molecular target: T1, MRP3 (ABCC3); test: as above; conditions: 10 μM E217G, 5 min, 37 °C, 100 μM compound, value is remaining uptake

T1 sequence (O15438 whole entry): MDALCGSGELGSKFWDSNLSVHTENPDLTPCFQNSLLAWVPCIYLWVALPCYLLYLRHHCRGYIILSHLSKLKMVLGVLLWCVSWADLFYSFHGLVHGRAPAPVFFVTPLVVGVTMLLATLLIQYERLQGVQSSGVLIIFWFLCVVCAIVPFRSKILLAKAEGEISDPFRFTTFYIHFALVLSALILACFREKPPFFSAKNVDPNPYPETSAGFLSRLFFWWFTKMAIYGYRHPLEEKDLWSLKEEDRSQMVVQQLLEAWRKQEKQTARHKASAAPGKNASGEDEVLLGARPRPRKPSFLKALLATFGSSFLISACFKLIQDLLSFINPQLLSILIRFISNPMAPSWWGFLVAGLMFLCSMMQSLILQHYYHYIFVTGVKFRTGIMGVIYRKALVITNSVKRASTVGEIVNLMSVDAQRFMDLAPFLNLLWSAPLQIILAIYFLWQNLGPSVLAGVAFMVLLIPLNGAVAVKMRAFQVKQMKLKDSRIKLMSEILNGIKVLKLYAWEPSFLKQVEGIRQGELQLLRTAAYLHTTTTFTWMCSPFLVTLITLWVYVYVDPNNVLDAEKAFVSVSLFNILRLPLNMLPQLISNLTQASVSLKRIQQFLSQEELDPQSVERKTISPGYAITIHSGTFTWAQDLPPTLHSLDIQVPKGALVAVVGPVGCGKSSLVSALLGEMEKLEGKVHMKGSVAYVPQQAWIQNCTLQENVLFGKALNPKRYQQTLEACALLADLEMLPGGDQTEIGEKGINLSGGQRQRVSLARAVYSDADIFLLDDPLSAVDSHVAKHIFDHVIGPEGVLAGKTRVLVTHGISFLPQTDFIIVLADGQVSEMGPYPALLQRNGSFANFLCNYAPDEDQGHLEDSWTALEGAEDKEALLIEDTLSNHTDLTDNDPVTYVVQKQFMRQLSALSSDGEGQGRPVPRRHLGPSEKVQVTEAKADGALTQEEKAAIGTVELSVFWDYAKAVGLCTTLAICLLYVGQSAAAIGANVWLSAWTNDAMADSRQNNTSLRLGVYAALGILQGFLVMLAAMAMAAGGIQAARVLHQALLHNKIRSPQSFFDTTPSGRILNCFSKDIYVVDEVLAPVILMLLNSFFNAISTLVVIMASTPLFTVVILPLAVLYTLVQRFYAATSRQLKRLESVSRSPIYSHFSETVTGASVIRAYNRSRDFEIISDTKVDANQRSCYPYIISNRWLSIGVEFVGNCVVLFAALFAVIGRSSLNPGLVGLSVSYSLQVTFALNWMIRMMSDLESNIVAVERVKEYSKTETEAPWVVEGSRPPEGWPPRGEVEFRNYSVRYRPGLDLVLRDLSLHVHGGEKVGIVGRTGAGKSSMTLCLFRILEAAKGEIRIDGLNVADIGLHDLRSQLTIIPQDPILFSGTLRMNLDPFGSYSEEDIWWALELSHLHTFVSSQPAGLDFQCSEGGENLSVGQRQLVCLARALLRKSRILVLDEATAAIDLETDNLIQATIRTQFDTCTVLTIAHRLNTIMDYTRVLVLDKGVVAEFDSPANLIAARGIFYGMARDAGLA

E217G uptake, % of control at 100 μM [2] [%] | SMILES | other results
45.8 | CCOC(=O)C1=C(C)NC(C)=C(C(=O)OC)C1c1cccc(Cl)c1Cl (stereo not drawn) [felodipine] | 
63.5 | CC[C@H](C)C(=O)O[C@H]1C[C@@H](C)C=C2C=C[C@H](C)[C@H](CC[C@@H]3C[C@@H](O)CC(=O)O3)[C@H]21 [lovastatin] | 
52.1 | OCCN(CCO)c1nc(N2CCCCC2)c2nc(N(CCO)CCO)nc(N3CCCCC3)c2n1 [dipyridamole] | 
37.4 | NS(=O)(=O)c1cc2c(cc1Cl)NC=NS2(=O)=O [Chlorothiazide] | 

The remaining lines, values behind:

SMILES | E217G uptake, % of control at 100 μM [2] [%] | other results
CCc1c(Cl)c(O)c(Cl)c(O)c1C(=O)O[C@H]1[C@H](O)[C@H](OC)[C@H](OC/C2=C\C=C\C[C@H](O)/C(C)=C/[C@H](CC)[C@@H](O[C@@H]3OC(C)(C)[C@@H](OC(=O)C(C)C)[C@H](O)[C@@H]3O)/C(C)=C/C(C)=C/C[C@@H]([C@@H](C)O)OC2=O)O[C@@H]1C [fidaxomicin] |  | IC50 ([1]; 10 μM E217G, ATP, 5 min, 37 °C, 0.1-100 μM inhibitor): 1.83 ± 0.46 µM
CNC(=O)c1cc(Oc2ccc(NC(=O)Nc3ccc(Cl)c(C(F)(F)F)c3)c(F)c2)ccn1 [regorafenib] | 69.5 | 
COC(=O)N[C@H](C(=O)N[C@@H](Cc1ccccc1)[C@@H](O)CN(Cc1ccc(-c2ccccn2)cc1)NC(=O)[C@@H](NC(=O)OC)C(C)(C)C)C(C)(C)C [atazanavir] | 55.0 | 
CCCCc1oc2ccc(NS(C)(=O)=O)cc2c1C(=O)c1ccc(OCCCN(CCCC)CCCC)cc1 [dronedarone] |  | IC50 [1]: 47.4 ± 4.41 µM
Cc1ccc(C(=O)Nc2ccc(S(=O)(=O)O)c3cc(S(=O)(=O)O)cc(S(=O)(=O)O)c23)cc1NC(=O)c1cccc(NC(=O)Nc2cccc(C(=O)Nc3cc(C(=O)Nc4ccc(S(=O)(=O)O)c5cc(S(=O)(=O)O)cc(S(=O)(=O)O)c45)ccc3C)c2)c1 [suramin] |  | IC50 [1]: 3.33 ± 0.41 µM
